Like-named read-outs stand apart in the source and are kept apart here.
Columns and labels:
huSTING (WT) = huSTING (WT) (Homo sapiens (Human), UniProt Q86WV6, H232R); test: THP-1 reporter cell line assay, THP-1-Dual KI-hSTING-R232 cells; assay type: cell-based; settings: read-out: Cellular EC50 huSTING (WT)
huSTING (HAQ) = huSTING (HAQ) (Homo sapiens (Human), UniProt Q86WV6, G230A/H232R/R293Q/R71H); test: THP-1 reporter cell line assay, THP-1 STING Lucia ISG cells; assay type: cell-based; settings: THP-1 STING Lucia ISG cells, read-out: Cellular EC50 huSTING (HAQ)
Sequence of huSTING (HAQ) (Q86WV6 whole entry R71H/G230A/H232R/R293Q): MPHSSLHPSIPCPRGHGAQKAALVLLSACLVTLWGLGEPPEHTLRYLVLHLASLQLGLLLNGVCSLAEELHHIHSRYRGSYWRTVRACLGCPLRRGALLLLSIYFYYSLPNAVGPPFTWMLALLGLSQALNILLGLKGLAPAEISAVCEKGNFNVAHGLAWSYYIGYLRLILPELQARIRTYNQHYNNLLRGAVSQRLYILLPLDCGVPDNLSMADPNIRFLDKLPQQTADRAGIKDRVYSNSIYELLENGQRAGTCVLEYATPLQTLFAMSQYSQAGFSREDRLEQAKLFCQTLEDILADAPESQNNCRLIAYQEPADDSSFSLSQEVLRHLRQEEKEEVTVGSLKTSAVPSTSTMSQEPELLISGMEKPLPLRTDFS

[1] = modified method, top concentration 40 μM, pin tool, EnVision

Sequence of huSTING (WT) (Q86WV6 whole entry H232R): as the sequence (Q86WV6 whole entry R71H/G230A/H232R/R293Q) above, with H71R, A230G, Q293R counted along it

EC50 (huSTING (WT)) | EC50 (huSTING (HAQ); 24 h, top concentration 50 μM) | EC50 (huSTING (HAQ); [1]) | Structure (SMILES)
3220 nM | 702 nM |  | CCOC(=O)c1sc2cccc(C)c2c1COc1ccc(C(N)=O)cc1 [Example 77, Ethyl 3-((4-carbamoylphenoxy)methyl)-4-methylbenzo[b]thiophene-2-carboxylate]
474 nM | 170 nM |  | CCOC(=O)c1sc2c(F)ccc(F)c2c1COc1c(F)cc(C(N)=O)cc1F [Example 79, Ethyl 3-((4-carbamoyl-2,6-difluorophenoxy)methyl)-4,7-difluorobenzo[b]thiophene-2-carboxylate]
20700 nM | 2790 nM |  | CCOC(=O)c1sc2c(F)ccc(F)c2c1COc1ccc(C(N)=O)cc1 [Example 81, Ethyl 3-((4-carbamoylphenoxy)methyl)-4,7-difluorobenzo[b]thiophene-2-carboxylate]
> 50000 nM | 2610 nM |  | CCOC(=O)c1sc2ccc(F)c(Cl)c2c1COc1ccc(C(N)=O)cc1 [Example 83, Ethyl 3-((4-carbamoylphenoxy)methyl)-4-chloro-5-fluorobenzo[b]thiophene-2-carboxylate]
> 50000 nM | 1630 nM |  | CCOC(=O)c1sc2ccc(F)c(Cl)c2c1COc1c(F)cc(C(N)=O)cc1F [Example 85, Ethyl 3-((4-carbamoyl-2,6-difluorophenoxy)methyl)-4-chloro-5-fluorobenzo[b]thiophene-2-carboxylate]
148 nM |  | 16 nM | CCOC(=O)c1sc2cccc(Br)c2c1COc1c(F)cc(C(N)=O)cc1F [Example 89, Ethyl 4-bromo-3-((4-carbamoyl-2,6-difluorophenoxy)methyl)benzo[b]thiophene-2-carboxylate]
862 nM |  | 270 nM | CCOC(=O)c1sc2ccnc(Cl)c2c1COc1c(F)cc(C(N)=O)cc1F [Example 91, Ethyl 3-((4-carbamoyl-2,6-difluorophenoxy)methyl)-4-chlorothieno[3,2-c]pyridine-2-carboxylate]
163 nM |  | 50 nM | CCOC(=O)c1sc2c(F)ccc(Cl)c2c1COc1c(F)cc(C(N)=O)cc1F [Example 92, Ethyl 3-((4-carbamoyl-2,6-difluorophenoxy)methyl)-4-chloro-7-fluorobenzo[b]thiophene-2-carboxylate]
1690 nM |  | 390 nM | CCOC(=O)c1sc2cccc(OCC)c2c1COc1c(F)cc(C(N)=O)cc1F [Example 94, Ethyl 3-((4-carbamoyl-2,6-difluorophenoxy)methyl)-4-ethoxybenzo[b]thiophene-2-carboxylate]
9720 nM |  | 1430 nM | CCOC(=O)c1sc2cccc(Cl)c2c1COc1ccc(C(N)=O)c(OC)c1 [Example 97, Ethyl 3-((4-carbamoyl-3-methoxyphenoxy)methyl)-4-chlorobenzo[b]thiophene-2-carboxylate]
135 nM |  | 22 nM | CCOC(=O)c1sc2c(Br)ccc(Cl)c2c1COc1c(F)cc(C(N)=O)cc1F [Example 99, Ethyl 7-bromo-3-((4-carbamoyl-2,6-difluorophenoxy)methyl)-4-chlorobenzo[b]thiophene-2-carboxylate]
377 nM |  | 53 nM | CCOC(=O)c1sc2ccnc(OC)c2c1COc1c(F)cc(C(N)=O)cc1F [Example 102, Ethyl 3-((4-carbamoyl-2,6-difluorophenoxy)methyl)-4-methoxythieno[3,2-c]pyridine-2-carboxylate]
341 nM |  | 344 nM | CCOC(=O)c1sc2ncnc(OC)c2c1COc1c(F)cc(C(N)=O)cc1F [Example 108]
52 nM |  | 13 nM | CCOC(=O)c1sc2cccc(Cl)c2c1COc1c(F)cc(C(N)=O)cc1CO [Example 110, Ethyl 3-((4-carbamoyl-2-fluoro-6-(hydroxymethyl)phenoxy)methyl)-4-chlorobenzo[b]thiophene-2-carboxylate]
1510 nM |  | 635 nM | CCOC(=O)c1sc2cccc(COC)c2c1COc1c(F)cc(C(N)=O)cc1F [Example 115, Ethyl 3-((4-carbamoyl-2,6-difluorophenoxy)methyl)-4-(methoxymethyl)benzo[b]thiophene-2-carboxylate]
76 nM |  | 24 nM | CCOC(=O)c1sc2c(F)ccc(Br)c2c1COc1c(F)cc(C(N)=O)cc1F [Example 116, Ethyl 4-bromo-3-((4-carbamoyl-2,6-difluorophenoxy)methyl)-7-fluorobenzo[b]thiophene-2-carboxylate]
580 nM |  | 59 nM | CCOC(=O)c1sc2ccnc(OC)c2c1COc1c(F)cc(C(N)=O)cc1CO [Example 121, Ethyl 3-((4-carbamoyl-2-fluoro-6-(hydroxymethyl)phenoxy)methyl)-4-methoxythieno[3,2-c]pyridine-2-carboxylate]
335 nM |  | 49 nM | COc1cccc2sc(C(=O)OCOC(=O)C(C)(C)C)c(COc3c(F)cc(C(N)=O)cc3F)c12 [Example 123, (Pivaloyloxy)methyl 3-((4-carbamoyl-2,6-difluorophenoxy)methyl)-4-methoxybenzo[b]thiophene-2-carboxylate]
1430 nM |  | 278 nM | CC(C)(C)C(=O)OCOC(=O)c1sc2cccc(C3CC3)c2c1COc1c(F)cc(C(N)=O)cc1F [Example 124, (Pivaloyloxy)methyl 3-((4-carbamoyl-2,6-difluorophenoxy)methyl)-4-cyclopropylbenzo[b]thiophene-2-carboxylate]
529 nM |  | 86 nM | CCC(=O)OC(OC(=O)c1sc2cccc(Cl)c2c1COc1c(F)cc(C(N)=O)cc1F)C(C)C (stereo not drawn) [Example 125, 2-Methyl-1-(propionyloxy)propyl 3-((4-carbamoyl-2,6-difluorophenoxy)methyl)-4-chlorobenzo[b]thiophene-2-carboxylate]
187 nM |  | 39 nM | Cc1oc(=O)oc1COC(=O)c1sc2cccc(Cl)c2c1COc1c(F)cc(C(N)=O)cc1F [Example 126, (5-Methyl-2-oxo-1,3-dioxol-4-yl)methyl 3-((4-carbamoyl-2,6-difluorophenoxy)methyl)-4-chlorobenzo[b]thiophene-2-carboxylate]
210 nM |  | 68 nM | CC(C)(C)C(=O)OCOC(=O)c1sc2cccc(Br)c2c1COc1c(F)cc(C(N)=O)cc1F [Example 128, (Pivaloyloxy)methyl 4-bromo-3-((4-carbamoyl-2,6-difluorophenoxy)methyl)benzo[b]thiophene-2-carboxylate]
57 nM |  | 44 nM | CC(C)(C)C(=O)OCOC(=O)c1sc2c(F)ccc(Br)c2c1COc1c(F)cc(C(N)=O)cc1F [Example 131]
916 nM |  | 97 nM | CC(C)OC(=O)OC(C)OC(=O)c1sc2cccc(Cl)c2c1COc1c(F)cc(C(N)=O)cc1F (stereo not drawn) [Example 132, 1-((Isopropoxycarbonyl)oxy)ethyl 3-((4-carbamoyl-2,6-difluorophenoxy)methyl)-4-chlorobenzo[b]thiophene-2-carboxylate]
334 nM |  | 64 nM | CC(OC(=O)c1sc2cccc(Cl)c2c1COc1c(F)cc(C(N)=O)cc1F)OC(=O)C(C)C (stereo not drawn) [Example 135, 1-(Isobutyryloxy)ethyl 3-((4-carbamoyl-2,6-difluorophenoxy)methyl)-4-chlorobenzo[b]thiophene-2-carboxylate]
226 nM |  | 21 nM | NC(=O)c1cc(F)c(OCc2c(C(=O)OCCN3CCOCC3)sc3cccc(Cl)c23)c(F)c1 [Example 137, 2-Morpholinoethyl 3-((4-carbamoyl-2,6-difluorophenoxy)methyl)-4-chlorobenzo[b]thiophene-2-carboxylate]
242 nM |  | 14 nM | CN(C)C(=O)OCOC(=O)c1sc2cccc(Cl)c2c1COc1c(F)cc(C(N)=O)cc1F [Example 138, ((Dimethylcarbamoyl)oxy)methyl 3-((4-carbamoyl-2,6-difluorophenoxy)methyl)-4-chlorobenzo[b]thiophene-2-carboxylate]
291 nM |  | 36 nM | CC(=O)N[C@H](C(=O)OCOC(=O)c1sc2cccc(Cl)c2c1COc1c(F)cc(C(N)=O)cc1F)C(C)C [Example 139, ((Acetyl-L-valyl)oxy)methyl 3-((4-carbamoyl-2,6-difluorophenoxy)methyl)-4-chlorobenzo[b]thiophene-2-carboxylate]
160 nM |  | 46 nM | CCC(=O)OC(OC(=O)c1sc2c(F)ccc(Br)c2c1COc1c(F)cc(C(N)=O)cc1F)C(C)C (stereo not drawn) [Example 140, 2-Methyl-1-(propionyloxy)propyl 4-bromo-3-((4-carbamoyl-2,6-difluorophenoxy)methyl)-7-fluorobenzo[b]thiophene-2-carboxylate]

Structure (SMILES) | EC50 (huSTING (WT)) | EC50 (huSTING (HAQ); 24 h, top concentration 50 μM) | EC50 (huSTING (HAQ); [1])
CC(OC(=O)OC(C)(C)C)OC(=O)c1sc2cccc(Cl)c2c1COc1c(F)cc(C(N)=O)cc1F (stereo not drawn) [Example 129, 1-((tert-Butoxycarbonyl)oxy)ethyl 3-((4-carbamoyl-2,6-difluorophenoxy)methyl)-4-chlorobenzo[b]thiophene-2-carboxylate] | 1580 nM |  | 119 nM
CC(C)(C)OC(=O)OCOC(=O)c1sc2cccc(Cl)c2c1COc1c(F)cc(C(N)=O)cc1F [Example 130, ((tert-Butoxycarbonyl)oxy)methyl 3-((4-carbamoyl-2,6-difluorophenoxy)methyl)-4-chlorobenzo[b]thiophene-2-carboxylate] | 687 nM |  | 60 nM
CC(C)[C@H](NC(=O)OC(C)(C)C)C(=O)OCOC(=O)c1sc2cccc(Cl)c2c1COc1c(F)cc(C(N)=O)cc1F [Example 133, (((tert-Butoxycarbonyl)-L-valyl)oxy)methyl 3-((4-carbamoyl-2,6-difluorophenoxy)methyl)-4-chlorobenzo[b]thiophene-2-carboxylate] | 806 nM |  | 120 nM
CC(=O)OC(C)OC(=O)c1sc2cccc(Cl)c2c1COc1c(F)cc(C(N)=O)cc1F (stereo not drawn) [Example 134, 1-Acetoxyethyl 3-((4-carbamoyl-2,6-difluorophenoxy)methyl)-4-chlorobenzo[b]thiophene-2-carboxylate] | 217 nM |  | 42 nM

From patent publication US11613525B2 (CTXT PTY LIMITED, priority 2018, dated 2023)
